In data set [1] the test system is HDACs HeLa cells nuclear extract. As to the kind of experiment: HDAC inhibitory activity, fluorometric kit, HeLa cell nuclear extract. The data set is classed as biochemical, human. As to conditions: HeLa cell nuclear extract as HDAC source.

The term IC50 denotes the concentration at which inhibition is half-maximal. Read a low IC50 as greater potency in that assay. On to `O=C(Nc1nc(-c2cc3ccccc3oc2=O)cs1)c1ccc(O)c(O)c1` [Compound 6a], for which the 50% inhibitory concentration (IC50) in data set [1] was 574 ± 24.4 nM.

The compound `O=C(O)CCCCC(=O)Nc1nc(-c2cc3ccccc3oc2=O)cs1` [Compound 7a] registered a half-maximal inhibitory concentration (IC50) in data set [1] of 6100 ± 390 nM.

As a reminder, the melting point is the temperature of the solid-liquid transition. As for `O=C(CCCCC1CCSS1)Nc1nc(-c2cc3ccccc3oc2=O)cs1` (stereo not drawn) [Compound 5a, 5-[1,2]-Dithiolan-3-yl-N-[4-(2-oxo-2H-chromen-3-yl)-thiazol-2-yl]-pentanamide], the melting point is 91 to 92 °C. In addition, half-maximal inhibition in data set [1] (IC50) was put at 66.7 ± 2.9 nM.

`O=C(CCCCC(=O)Nc1nc(-c2cc3ccccc3oc2=O)cs1)NO` [Compound 8a, 5-[4-(2-Oxo-2H-chromen-3-yl)-thiazol-2-yl-carbamoyl]-N-hydroxypentanamide]: the melting point is 150 to 152 °C (dec.). The same compound displayed an IC50 in data set [1] of 66.9 ± 1.8 nM.

The record behind these values is article PMC6412891, “Synthesis and Biological Evaluation of Novel Thiazolyl-Coumarin Derivatives as Potent Histone Deacetylase Inhibitors with Antifibrotic Activity” (Molecules, 2019).
